The values that follow come from patent publication EP0953357A1, “NEPHROTROPIC DRUGS” (Drug Delivery System Institute, Ltd., priority 1997, dated 1998).

Where “and” joins values, the source holds several entries; their conditions need not be identical. Identical values can stand only once. Counter-ions that a name gives are not always drawn. Some results are limits rather than exact numbers.

Series [1] addresses kidney membrane fraction. Kind of series: Inhibition of binding of ^3H-Glc-O-C8-AVP to kidney membrane fraction (Test 4). The following applies: ^3H-Glc-O-C8-AVP 20 pmol/ml, kidney membrane fraction 1 mg/ml, on ice 10 min. How it is done: A membrane fraction was prepared by the method of Stassen F.L. et al. (J. Pharm. Exp. Thera., 223, 50-54, 1982). An experiment on binding was carried out as follows. The membrane fraction prepared above, together with the ^3H-labeled derivative, was incubated in physiological phosphate buffer on ice, followed by ultracentrifugation. The bound product obtained as the sediment by the ultracentrifugation was counted.
The inhibitory activity of segmental structures of Glc-O-C8-AVP and the like against binding ^3H-Glc-O-C8-AVP (20 pmol/ml) to the kidney membrane fraction (1 mg/ml) (incubation on ice for 10 min) was studied.

In series [2] the test system is kidney membrane fraction. Kind of series: Effect of glycolipid derivatives on inhibition of specific binding between ^3H-Glc-S-C8 and kidney membrane fraction (Test 9). Particulars: specific binding of ^3H-Glc-S-C8 to kidney membrane fraction, same manner as Test 4. Here is the method:
A membrane fraction was prepared by the method of Stassen F.L. et al. (J. Pharm. Exp. Thera., 223, 50-54, 1982). An experiment on binding was carried out as follows. The membrane fraction prepared above, together with the ^3H-labeled derivative, was incubated in physiological phosphate buffer on ice, followed by ultracentrifugation. The bound product obtained as the sediment by the ultracentrifugation was counted. […]
Commercially available or synthesized glycolipid derivatives were subjected to an binding inhibition experiment in the same manner as in Test 4.

The subject of series [3] is kidney membrane fraction. Description: Effect of sugars on inhibition of specific binding between ^3H-Glc-S-C8 and kidney membrane fraction (Test 8). The following applies: ^3H-Glc-S-C8 20 pmol/ml, kidney membrane fraction 1 mg protein/ml.
Protocol: In order to estimate structural requirement for recognition in the kidney, an experiment was carried out on the effect of various sugars and sugar derivatives on the inhibition of specific -binding between ^3H-Glc-S-C8 (20 pmol/ml) and the kidney membrane fraction (1 mg protein/ml).
Series [4] is described as follows: Renal selectivity (organ distribution) of thioglucoside-modified products (Test 6). Type of series: in vivo. Particulars: rats; for Conc. in kidney / Renal clearance: ^3H-labeled product, same manner as Test 1 (i.v. 1 nmol/kg, 5 min); for renal selectivity: comparison between AVP derivatives. How it is done:
The organ clearance was determined by the following equation.

A short description of series [5]: Pharmacokinetic test of monkey (Glc-S-C8-CONH-C2-NBD) (Test 10 (2)). Type of series: in vivo. The following applies: monkeys, i.v. 10 nmol/kg, 5 min; n = 2, average. Here is the method:
In order to investigate the difference in activity of the compounds according to the present invention between animal species, the pharmacokinetic test using monkeys was carried out as follows. […] The monkeys of group A were injected with Glc-S-C8-CONH-C2-NBD, while, for comparison, the monkeys of group B were injected with 4-(2-hydroxyethyl)amino-7-nitrobenz-2-oxa-1,3-diazole (synthesis intermediate prepared in Example 44; hereinafter referred to as "HO-C2-NBD").
Five min after the administration, the monkeys were bled to death; and, immediately after that, each organ was extracted. According to the conventional method, the organs were homogenized and deprotenized. Thereafter, the samples were subjected to separation by reversed phase liquid chromatography. Glc-S-C8-CONH-C2-NBD and HO-C2-NBD were detected and quantitatively determined by fluorescence detector.

As for `CCCCCCCCO[C@@H]1O[C@H](CO)[C@@H](O)[C@H](O)[C@H]1O` [Glc-O-C8, Octyl β-D-glucopyranoside], the 50% inhibitory concentration (IC50) worked out at 2.9 µM at kidney membrane fraction [1] and 4.6 µM with kidney membrane fraction [2].

In turn, `CC(C)(C)CC(C)(C)S[C@@H]1O[C@H](CO)[C@@H](O)[C@H](O)[C@H]1O` [Glc-S-C(CH3)2-CH2-C(CH3)3, t-Octyl 1-thio-β-D-glucopyranoside] came in with a 50% inhibitory concentration (IC50) with kidney membrane fraction [2] of 1 µM.

The compound `CCCCCCCCS[C@@H]1OC[C@@H](O)[C@H](O)[C@H]1O` [Xyl-S-C8, Octyl 1-thio-β-D-xylopyranoside] gave a half-maximal inhibitory concentration (IC50) in the series on kidney membrane fraction [2] of 1.5 µM.

In the case of `CCCCCCCCS[C@@H]1O[C@H](CO)[C@@H](O)[C@H](O)[C@H]1O` [Glc-S-C8, Octyl 1-thio-β-D-glucopyranoside], the IC50 at kidney membrane fraction [1] was found to be 0.065 µM; in the series with kidney membrane fraction [2] it was 0.078 µM.

As for `O=C[C@H](O)[C@@H](F)[C@H](O)[C@H](O)CO` [3-Fluoro-3-deoxyglucose], the “Inhibition (%)” value worked out at 9.7% with kidney membrane fraction [3] (sample 20 mM) and 18.7% in the series on kidney membrane fraction [3] (sample 100 mM).

On to `O=C[C@H](O)[C@@H](O)[C@@H](O)[C@H](O)CO` [Galactose], for which the entries for the “Inhibition (%)” value with kidney membrane fraction [3] (sample 20 mM) and in the series on kidney membrane fraction [3] (sample 100 mM) were 2.5% and 18.9%, respectively.

As to `O=CC[C@@H](O)[C@H](O)[C@H](O)CO` [2-Deoxyglucose], the “Inhibition (%)” value in the series with kidney membrane fraction [3] (sample 20 mM) is 29.2%; in the series on kidney membrane fraction [3] (sample 100 mM), 58.3%.

In turn, `CCCCCCCCS[C@@H]1O[C@H](CO)[C@@H](O)[C@H](O)[C@@H]1O` [Man-S-C8, Octyl 1-thio-β-D-mannopyranoside] returned a half-inhibitory concentration (IC50) in the series on kidney membrane fraction [2] of 0.2 µM.

As to `N=C(N)NCCC[C@H](NC(=O)[C@@H]1CCCN1C(=O)[C@@H]1CSSC[C@H](NC(=O)CCCCCCCCCCCS[C@@H]2O[C@H](CO)[C@@H](O)[C@H](O)[C@H]2O)C(=O)N[C@@H](Cc2ccc(O)cc2)C(=O)N[C@@H](Cc2ccccc2)C(=O)N[C@@H](CCC(N)=O)C(=O)N[C@@H](CC(N)=O)C(=O)N1)C(=O)NCC(N)=O` [Glc-S-C11-AVP], in series [4], the Conc. in kidney is given as 40.2±1.5 % of dose/g, the Renal clearance stood at 4.47 ± 0.33 mL/min/g and the renal selectivity result is “higher renal selectivity than Glc-S-C8-AVP”.

On to “arginine vasopressin [AVP, reference compound]”, for which the IC50 at kidney membrane fraction [1] worked out at 150 µM. Also, in series [4], the Conc. in kidney is on record as 5.3±0.7 % of dose/g and the Renal clearance amounted to 0.49 ± 0.04 mL/min/g.

As to `O=[N+]([O-])c1ccc(S[C@@H]2O[C@H](CO)[C@@H](O)[C@H](O)[C@H]2O)cc1` [Glc-S-pNP, p-Nitrophenyl 1-thio-β-D-glucopyranoside], the half-inhibitory concentration (IC50) in the series with kidney membrane fraction [2] was determined as 0.23 µM.

As for `O=C[C@H](O)[C@@H](O)[C@H](F)[C@H](O)CO` [4-Fluoro-4-deoxyglucose], the “Inhibition (%)” value is 70.2% with kidney membrane fraction [3] (sample 20 mM) and 83.9% with kidney membrane fraction [3] (sample 100 mM).

As for `O=C[C@H](F)[C@@H](O)[C@H](O)[C@H](O)CO` [2-Fluoro-2-deoxyglucose], the “Inhibition (%)” value in the series with kidney membrane fraction [3] (sample 20 mM) is 37.8%; with kidney membrane fraction [3] (sample 100 mM), 67.9%.

In the series on kidney membrane fraction [2], `CCCCCCCCS[C@@H]1O[C@H](CO)[C@@H](O)[C@@H](O)[C@H]1O` [All-S-C8, Octyl 1-thio-β-D-allopyranoside] returned an IC50 of 1.1 µM.

`CCCCCCO[C@@H]1O[C@H](CO)[C@@H](O)[C@H](O)[C@H]1O` [Glc-O-C6, Hexyl β-D-glucopyranoside] returned an IC50 at kidney membrane fraction [1] of 5.9 µM.

The compound `COC(=O)CCCCCCCN[C@@H]1O[C@H](CO)[C@@H](O)[C@H](O)[C@H]1O` [Glc-NH-C7-COOMe, N-(7-methoxycarbonyl)heptyl-β-D-glucopyranosylamine] displayed an IC50 in the series with kidney membrane fraction [2] of 0.11 µM.

For the compound `O=C[C@H](O)[C@@H](O)[C@H](O)[C@H](O)CF` [6-Fluoro-6-deoxyglucose], the entries for the “Inhibition (%)” value in the series with kidney membrane fraction [3] (sample 20 mM) and in the series with kidney membrane fraction [3] (sample 100 mM) were 17.8% and 32.5%, respectively.

The compound `CCCCC(CCCC)S[C@@H]1O[C@H](CO)[C@@H](O)[C@H](O)[C@H]1O` [Glc-S-CH(C4H9)2, 5-(1-Thio-β-D-glucopyranosyl)nonan] gave a half-inhibitory concentration (IC50) in the series with kidney membrane fraction [2] of 1.5 µM.

In the series with kidney membrane fraction [2], `CCCCCCCCS[C@H]1C[C@@H](O)[C@H](O)[C@@H](CO)O1` [Example 2d-Glc-S-C8, Octyl 2-deoxy-1-thio-β-D-glucopyranoside] registered an IC50 of 0.071 µM.

With `OC[C@H]1OC(O)[C@H](O)[C@@H](O)[C@@H]1O` (some centres unmarked) [Glc, glucopyranose], on kidney membrane fraction [1], the IC50 was over 2000 µM. Also, the “Inhibition (%)” value is listed as 16.7% in the series with kidney membrane fraction [3] (sample 20 mM) and 38.4% with kidney membrane fraction [3] (sample 100 mM).

For `O=C(CCCCCCCCS[C@@H]1O[C@H](CO)[C@@H](O)[C@H](O)[C@H]1O)NCCNc1ccc([N+](=O)[O-])c2nonc12` [Glc-S-C8-CONH-C2-NBD], in series [5], the “concentration of administered compound: Adrenal” value is 1.87 pmol/mol or g tissue, the “concentration of administered compound: Blood” value is 10.72 pmol/mol or g tissue, the “concentration of administered compound: Heart” value is given as 3.23 pmol/mol or g tissue and the “concentration of administered compound: Kidney” value is 280.32 pmol/mol or g tissue. In series [5], the “concentration of administered compound: Liver” value is listed as 13.85 pmol/mol or g tissue, the “concentration of administered compound: Lung” value is recorded as 6.90 pmol/mol or g tissue, the “concentration of administered compound: Plasma” value was 16.42 pmol/mol or g tissue and the “concentration of administered compound: Spleen” value is recorded as 0.55 pmol/mol or g tissue.

With `CCCCCCCCS[C@@H]1O[C@H](CO)[C@H](O)[C@H](O)[C@H]1O` [Gal-S-C8, Octyl 1-thio-β-D-galactopyranoside], the IC50 was found to be 120 µM at kidney membrane fraction [1] and 37 µM in the series on kidney membrane fraction [2].

Take `COC(=O)CCCCCCCCS[C@@H]1O[C@H](CO)[C@@H](O)[C@H](O)[C@H]1O` [Glc-S-C8-COOMe, 8-methoxycarbonyloctyll-thio-β-D-glucopyranoside]: the IC50 with kidney membrane fraction [2] turned out to be 0.59 µM.

Consider `N=C(N)NCCC[C@H](NC(=O)[C@@H]1CCCN1C(=O)[C@@H]1CSSC[C@H](NC(=O)CCCCCCCCS[C@@H]2O[C@H](CO)[C@@H](O)[C@H](O)[C@H]2O)C(=O)N[C@@H](Cc2ccc(O)cc2)C(=O)N[C@@H](Cc2ccccc2)C(=O)N[C@@H](CCC(N)=O)C(=O)N[C@@H](CC(N)=O)C(=O)N1)C(=O)NCC(N)=O` [Glc-S-C8-AVP], for which, in series [4], the Conc. in kidney is given as 29.2±0.9 % of dose/g; the Renal clearance is 3.42 mL/min/g and 3.42 ± 0.05 mL/min/g; the renal selectivity entry is “higher renal selectivity than Glc-O-C8-AVP”.

The compound `CO[C@@H]1O[C@H](CO)[C@@H](O)[C@H](O)[C@H]1O` [Glc-O-CH3, Methyl β-D-glucopyranoside] displayed an IC50 at kidney membrane fraction [1] of over 2000 µM.

As for `COC(=O)CCCCCCCCO[C@@H]1O[C@H](CO)[C@@H](O)[C@H](O)[C@H]1O` [Glc-O-C8-COOMe, 8-methoxycarbonyloctylβ-D-glucopyranoside], the 50% inhibitory concentration (IC50) with kidney membrane fraction [2] came out at 33 µM.

Regarding `COC(=O)CCCCCCCCS[C@@H]1S[C@H](CO)[C@@H](O)[C@H](O)[C@H]1O` [5S-Glc-S-C8-COOMe, 8-methoxycarbonyloctyl 5-deoxy-1,5-dithio-β-D-glucopyranoside], the IC50 with kidney membrane fraction [2] worked out at 14 µM.

`O=[N+]([O-])c1ccc(NCCO)c2nonc12` [HO-C2-NBD, 4-(2-hydroxyethyl)amino-7-nitrobenz-2-oxa-1,3-diazole, reference compound]: in series [5], the “concentration of administered compound: Adrenal” value was 2.05 pmol/mol or g tissue, the “concentration of administered compound: Blood” value was 7.53 pmol/mol or g tissue, the “concentration of administered compound: Heart” value is on record as 10.92 pmol/mol or g tissue and the “concentration of administered compound: Kidney” value is on record as 2.33 pmol/mol or g tissue. In addition, in series [5], the “concentration of administered compound: Lung” value was 17.33 pmol/mol or g tissue, the “concentration of administered compound: Plasma” value is 7.51 pmol/mol or g tissue and the “concentration of administered compound: Spleen” value is listed as 2.35 pmol/mol or g tissue.

For `COC(=O)CCCCCCCCS[C@@H]1N[C@H](CO)[C@@H](O)[C@H](O)[C@H]1O` [5N-Glc-S-C8-COOMe, 8-methoxycarbonyloctyl 5-amino-5-deoxy-1-thio-β-D-glucopyranoside hydrochloride], the IC50 in the series on kidney membrane fraction [2] was 4.7 µM.

As to `OC[C@H]1NC[C@H](O)[C@@H](O)[C@@H]1O` [1-Deoxynojirimycin], the “Inhibition (%)” value in the series on kidney membrane fraction [3] (sample 20 mM) worked out at 98.9%; with kidney membrane fraction [3] (sample 100 mM), 99.6%.

`CCCCCCCCS[C@@H]1O[C@H](CO)C[C@H](O)[C@H]1O` [Example 4d-Glc-S-C8, n-octyl 4-deoxy-1-thio-β-D-glucopyranoside] showed a half-inhibitory concentration (IC50) in the series with kidney membrane fraction [2] of 55 µM.

The IC50 is the midpoint of a concentration-inhibition curve.
